Assay results taken from patent US11744907B2, “Predicting peptide receptor radiotherapy using a gene expression assay” (Liquid Biopsy Research LLC, priority 2017, dated 2023).

How the values were obtained:
[1] = system: neuroendocrine tumor (NET); test: Progression-free survival of PPQ-negative subjects after PRRT or PRRT plus chemotherapy; assay type: in vivo, human; details: PPQ predicted non responders; standard 4 cycle PRRT
Source text: Clinical outcomes of patients that were identified by the PPQ to be a predicted non-responder to PRRT therapy were further analyzed. […] Thus, the PPQ can be used to identify patients that require additional agents (e.g. immune-related treatments or chemotherapy) to be used with PRRT and thereby optimize outcomes.

midgut NETs = midgut NETs progressive on standard octreotide LAR treatment; cited from earlier work

For C[C@@H](O)[C@H](NC(=O)[C@@H]1CSSC[C@H](NC(=O)[C@@H](Cc2ccccc2)NC(=O)CN2CCN(CC(=O)[O-])CCN(CC(=O)[O-])CCN(CC(=O)[O-])CC2)C(=O)N[C@@H](Cc2ccc(O)cc2)C(=O)N[C@H](Cc2c[nH]c3ccccc23)C(=O)N[C@@H](CCCCN)C(=O)N[C@@H]([C@@H](C)O)C(=O)N1)C(=O)O.[177Lu+3] [Lutathera, ^177Lu-DOTA-Tyr^3-Thr^8-octreotide], the “median PFS” value [1] is listed as 9 months and the “efficacy versus high-dose octreotide” value (midgut NETs) is listed as “more effective than high-dose octreotide somatostatin analogs”.
